Assay results reported in publication PMC12670426 (Journal of Medicinal Chemistry, 2025).
Like-named read-outs stand apart in the source and are kept apart here.

What was measured:
[1] = target: T1, human galectin-1 (Gal-1, full length) (Homo sapiens, UniProt P09382); test: Competitive fluorescence polarization assay, Gal-1; format: binding
T1 construct: Gal-1 is a prototype galectin consisting of a single CRD and was used in full length; 6xHis tag with TEV protease site (N, cleaved yes); made in house; host or cells: BL21 Escherichia coli (pET-15b)
Description: (§1) Our investigation of the structure–activity relationship of N-aryl-N-lactosylamides started with an initial screening of substituted acetanilides (Table ). These compounds can be readily synthesized from a wide range of commercially available substituted anilines. Affinity was evaluated using a fluorescence polarization assay, which enables reliable determination of dissociation constants (K d) between small molecules and galectins. All inhibitors in this series were tested against the two most common human galectins: Gal-1 and Gal-3. Gal-1 is a prototype galectin consisting of a single CRD and was used in full length. In the case of Gal-3, which consists of the C-terminal CRD and N-terminal unfolded region, only the C-terminal domain was used (Gal-3C). Affinities were compared to methyl β-lactoside (β-LacOMe) as a baseline.
(§2) Fluorescence polarization experiments for determining inhibitor affinities were performed using the same instrumentation and settings as described for the direct binding experiments. […] The galectin–probe mixture was subsequently added using a Certus Flex liquid handler (Fritz Gyger AG, Switzerland) to reach a final volume of 5 μL. Anisotropy was measured after 30–60 min incubation at 25 °C. Inhibitor dissociation constants (K d) were calculated using Wang’s exact cubic model for competitive binding implemented in the BindCurve package. Protein and probe concentrations used in these competitive experiments are provided in the Supporting Information.
(§3) Competitive binding was modeled by Wang’s exact cubic model,3 which is written as […]
(§4) r = rmin + (rmax − rmin) 3 (6) […]
(§5) where r, rmin and rmax have the same meaning as in Equation 1. The coefficients a, b, and c are […]
(§6) a = Kd∗ + Kd + [L∗]T + [L]T − [R]T (7) b = Kd∗([L]T − [R]T) + Kd([L∗]T − [R]T) + Kd∗ Kd (8) […]
(§7) where Kd∗ is the dissociation constant of the probe, Kd is the dissociation constant of the […]
(§8) the unlabeled ligand, and [R]T is the total concentration of the receptor. The angle θ is defined […]
(§9) In the competitive binding experiments, the values of [L∗]T, [R]T and Kd∗ are known and [L]T is titrated. The values of minimal and maximal anisotropy rmin and rmax were fixed during fitting at the values of the minimal and maximal asymptotes obtained from the direct binding experiments. The value of Kd was calculated as the only unfixed parameter in the model.
(§10) Experimental constants used for the competitive fluorescence polarization experiments are […]
(§11) Table S2. Experimental constants used for competitive fluorescence polarization experiments. […]

[2] = target: T2, human galectin-3C (Gal-3C, C-terminal CRD of galectin-3) (Homo sapiens, UniProt P17931); test: Competitive fluorescence polarization assay, Gal-3C; format: binding
T2 construct: only the C-terminal domain was used (Gal-3C); 6xHis tag with TEV protease site (N, cleaved yes); made in house; host or cells: BL21 Escherichia coli (pET-15b)
Description: as §1, §2, §3, §4, §5, §6, §7, §8, §9, §10, §11

[3] = CSV supplement, unrounded mean, read-out: Gal1_IC50_mean_uM
[4] = CSV supplement, unrounded mean, read-out: Gal1_Kd_mean_uM
[5] = competitive fluorescence polarization, mean ± SD, read-out: Kd Gal-1
[6] = four-parameter logistic model, mean ± SD, read-out: IC50 Gal-1
[7] = CSV supplement, unrounded mean, read-out: Gal3C_IC50_mean_uM
[8] = CSV supplement, unrounded mean, read-out: Gal3C_Kd_mean_uM
[9] = competitive fluorescence polarization, mean ± SD, read-out: Kd Gal-3C
[10] = four-parameter logistic model, mean ± SD, read-out: IC50 Gal-3C

T2 sequence (P17931 118-248 limits assumed): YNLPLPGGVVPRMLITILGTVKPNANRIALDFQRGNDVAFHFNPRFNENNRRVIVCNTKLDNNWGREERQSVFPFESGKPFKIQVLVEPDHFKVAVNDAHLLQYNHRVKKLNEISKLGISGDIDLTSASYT
T1 sequence (P09382 2-135): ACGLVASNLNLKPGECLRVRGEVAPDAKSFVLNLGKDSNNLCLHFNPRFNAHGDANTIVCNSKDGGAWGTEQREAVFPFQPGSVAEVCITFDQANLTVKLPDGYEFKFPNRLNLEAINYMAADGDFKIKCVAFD

## CC(=O)N(c1ccc(I)cc1)[C@@H]1O[C@H](CO)[C@@H](O[C@@H]2O[C@H](CO)[C@H](O)[C@H](O)[C@H]2O)[C@H](O)[C@H]1O [Compound 3l, N-[4-O-(β-D-Galactopyranosyl)-β-D-glucopyranosyl]-N-(4-iodophenyl)acetamide]
[1]; [3]
  IC50: 718 µM
[1]; [4]
  Kd: 396 µM
[1]; [5]
  Kd: 400 ± 20 µM
[1]; [6]
  IC50: 720 ± 40 µM
[2]; [7]
  IC50: 355 µM
[2]; [8]
  Kd: 113 µM
[2]; [9]
  Kd: 110 ± 20 µM
[2]; [10]
  IC50: 360 ± 20 µM

## COc1ccc(N(C(C)=O)[C@@H]2O[C@H](CO)[C@@H](O[C@@H]3O[C@H](CO)[C@H](O)[C@H](O)[C@H]3O)[C@H](O)[C@H]2O)cc1 [Compound 3m, N-[4-O-(β-D-Galactopyranosyl)-β-D-glucopyranosyl]-N-(4-methoxyphenyl)acetamide]
[1]; [3]
  IC50: 973 µM
[1]; [4]
  Kd: 661 µM
[1]; [5]
  Kd: 660 ± 70 µM
[1]; [6]
  IC50: 970 ± 50 µM
[2]; [7]
  IC50: 346 µM
[2]; [8]
  Kd: 137 µM
[2]; [9]
  Kd: 140 ± 50 µM
[2]; [10]
  IC50: 350 ± 30 µM

## COc1ccc(N(C(C)=O)[C@@H]2O[C@H](CO)[C@@H](O[C@@H]3O[C@H](CO)[C@H](O)[C@H](O)[C@H]3O)[C@H](O)[C@H]2O)cc1OC [Compound 3n, N-[4-O-(β-D-Galactopyranosyl)-β-D-glucopyranosyl]-N-(3,4-dimethoxyphenyl)acetamide]
[1]; [3]
  IC50: 678 µM
[1]; [4]
  Kd: 364 µM
[1]; [5]
  Kd: 360 ± 40 µM
[1]; [6]
  IC50: 680 ± 10 µM
[2]; [7]
  IC50: 284 µM
[2]; [8]
  Kd: 88.9 µM
[2]; [9]
  Kd: 89 ± 20 µM
[2]; [10]
  IC50: 280 ± 10 µM

## COc1cc(N(C(C)=O)[C@@H]2O[C@H](CO)[C@@H](O[C@@H]3O[C@H](CO)[C@H](O)[C@H](O)[C@H]3O)[C@H](O)[C@H]2O)cc(OC)c1OC [Compound 3o, N-[4-O-(β-D-Galactopyranosyl)-β-D-glucopyranosyl]-N-(3,4,5-trimethoxyphenyl)acetamide]
[1]; [3]
  IC50: 461 µM
[1]; [4]
  Kd: 243 µM
[1]; compared to 3a
  improvement in affinity toward Gal-1 compared to 3a: 2 fold
[1]; [5]
  Kd: 240 ± 40 µM
[1]; [6]
  IC50: 460 ± 80 µM
[2]; [7]
  IC50: 238 µM
[2]; [8]
  Kd: 76.2 µM
[2]; [9]
  Kd: 76 ± 20 µM
[2]; [10]
  IC50: 240 ± 40 µM

## CC(=O)N(c1ccc2c(c1)OCO2)[C@@H]1O[C@H](CO)[C@@H](O[C@@H]2O[C@H](CO)[C@H](O)[C@H](O)[C@H]2O)[C@H](O)[C@H]1O [Compound 3p, N-[4-O-(β-D-Galactopyranosyl)-β-D-glucopyranosyl]-N-(1,3-benzodioxol-5-yl)acetamide]
[1]; [3]
  IC50: 981 µM
[1]; [4]
  Kd: 545 µM
[1]; [5]
  Kd: 540 ± 30 µM
[1]; [6]
  IC50: 980 ± 10 µM
[2]; [7]
  IC50: 346 µM
[2]; [8]
  Kd: 115 µM
[2]; [9]
  Kd: 110 ± 20 µM
[2]; [10]
  IC50: 350 ± 10 µM

## CCOC(=O)c1ccccc1N(C(C)=O)[C@@H]1O[C@H](CO)[C@@H](O[C@@H]2O[C@H](CO)[C@H](O)[C@H](O)[C@H]2O)[C@H](O)[C@H]1O [Compound 3q, N-[4-O-(β-D-Galactopyranosyl)-β-D-glucopyranosyl]-N-[2-(ethylcarboxy)phenyl]acetamide]
[1]; [3]
  IC50: 773 µM
[1]; [4]
  Kd: 411 µM
[1]; [5]
  Kd: 410 ± 20 µM
[1]; [6]
  IC50: 770 ± 70 µM
[2]; [7]
  IC50: 242 µM
[2]; [8]
  Kd: 80.2 µM
[2]; [9]
  Kd: 80 ± 9 µM
[2]; [10]
  IC50: 240 ± 5 µM

## CC(=O)N(c1cccc(C(=O)O)c1)[C@@H]1O[C@H](CO)[C@@H](O[C@@H]2O[C@H](CO)[C@H](O)[C@H](O)[C@H]2O)[C@H](O)[C@H]1O [Compound 3r, N-[4-O-(β-D-Galactopyranosyl)-β-D-glucopyranosyl]-N-(3-carboxyphenyl)acetamide]
[1]; [3]
  IC50: 1400 µM
[1]; [4]
  Kd: 858 µM
[1]; [5]
  Kd: 860 ± 30 µM
[1]; [6]
  IC50: 1400 ± 100 µM
[2]; [7]
  IC50: 127 µM
[2]; [8]
  Kd: 40.9 µM
[2]; compared to unsubstituted phenyl derivative 3a
  improvement in affinity toward Gal-3C compared to 3a: 2 fold
[2]; [9]
  Kd: 41 ± 10 µM
[2]; [10]
  IC50: 130 ± 20 µM
[2]; ratio Kd (Gal-1)/Kd (Gal-3C)
  selectivity for Gal-3C over Gal-1: 20 fold
